{"source": "PubChem BioAssay AID1996"}
{"details": "buffer; pH 7.4; 200.0 µM", "units": {"solubility kinetic": "µg/mL"}}
{"smiles": "CCOC(=O)c1sc(=S)n(C)c1NC(=O)c1ccc(OC)cc1", "solubility kinetic": 9.1}
{"smiles": "Cc1ccc(C(=O)Nn2cnc3ccccc3c2=O)cc1C", "solubility kinetic": "> 44"}
{"smiles": "CCC(C)Nc1nc(C)nc2c1oc1ccccc12.Cl", "note": "(stereo unspecified)", "solubility kinetic": 41.3}
{"smiles": "O=C(CN1CCOCC1)NNC(=O)c1ccc(Cl)cc1", "solubility kinetic": "> 44.7"}
{"smiles": "Cn1c(NN)nc2ccccc2c1=O", "solubility kinetic": "> 28.5"}
{"smiles": "CC(C)(C)CN1CCN(Cc2cccnc2)CC1CCO", "note": "(stereo unspecified)", "solubility kinetic": "> 43.7"}
{"smiles": "Cc1ccc(C)c(-c2cc(C(=O)NC3CC3)c3ccccc3n2)c1", "solubility kinetic": 39.6}
{"smiles": "Cc1cccc(C(=O)NCC(=O)N2CCOCC2)c1", "solubility kinetic": "> 39.3"}
{"smiles": "O=C(COC(=O)CC1CCCC1)Nc1ccccc1[N+](=O)[O-]", "solubility kinetic": 12.1}
{"smiles": "O=C(Nc1cccnc1)OC1CCCCC1", "solubility kinetic": "> 33"}
{"smiles": "COc1ccc2oc(C(=O)OCC(=O)N3CCCCC3C)c(C)c2c1", "note": "(stereo unspecified)", "solubility kinetic": "> 51.8"}
{"smiles": "CCN(c1cccc2ccccc12)S(=O)(=O)c1ccc(Cl)nc1", "solubility kinetic": 7.9}
{"smiles": "Cc1ccc(NC(=O)C(C)Sc2nnc3ccccn23)cc1", "note": "(stereo unspecified)", "solubility kinetic": "> 46.9"}
{"smiles": "COc1ccc(OC)c(CNS(=O)(=O)c2cn(C)cn2)c1", "solubility kinetic": 46.5}
{"smiles": "CC1CCCC(NC(=O)COC(=O)Cc2ccc(Cl)cc2)C1C", "note": "(stereo unspecified)", "solubility kinetic": 27.3}
{"smiles": "CC(C)Nc1c([N+](=O)[O-])c(=O)oc2ccccc12", "solubility kinetic": 26.4}
{"smiles": "COc1ccc(C(=O)NCC(=O)Nc2cccc(S(=O)(=O)N3CCCC3)c2)cc1", "solubility kinetic": 60.1}
{"smiles": "Cc1cccc(OCC(=O)NCCCNC(=O)c2cccnc2)c1", "solubility kinetic": "> 49.1"}
{"smiles": "Cc1ccc(CNc2nc(C)cs2)cc1", "solubility kinetic": 25.3}
{"smiles": "CCC(NS(=O)(=O)c1cccs1)c1ccc(C)cc1", "note": "(stereo unspecified)", "solubility kinetic": "> 44.3"}
{"smiles": "COc1ccc(/C=C/c2cc(C(F)(F)F)on2)cc1", "solubility kinetic": 1.3}
{"smiles": "O=C(Nc1ccc(F)cc1F)Nc1csc2ccccc12", "solubility kinetic": 0.6}
{"smiles": "COc1ccccc1C(=O)OCC(=O)NC(=O)NC1CCCC1", "solubility kinetic": "> 48.1"}
{"smiles": "S=C1NCN(Cc2ccco2)CN1CCc1ccccc1", "solubility kinetic": 9.6}
{"smiles": "CC(Sc1nnc(NC2CC2)s1)C(=O)Nc1ccc(S(N)(=O)=O)cc1", "note": "(stereo unspecified)", "solubility kinetic": "> 59.9"}
{"smiles": "CC(=O)c1ccc(N2C(=O)CC(N3CCN(S(=O)(=O)c4cc(C)ccc4C)CC3)C2=O)cc1", "note": "(stereo unspecified)", "solubility kinetic": 56.9}
{"smiles": "CC12CCC(C(=O)NC3CCCCC3)([C@H](Br)C1=O)C2(C)C", "note": "(stereo partly specified)", "solubility kinetic": "> 53.4"}
{"smiles": "CCCN1CCN(CCCNC(=S)Nc2ccc(F)cc2)CC1", "solubility kinetic": 49}
{"smiles": "Cc1nc2ccccc2c2c1C(=O)NC2=O", "solubility kinetic": "> 31.8"}
{"smiles": "CC(C(=O)Nc1cccc([N+](=O)[O-])c1)N1C(=O)NC2(CCCC2)C1=O", "note": "(stereo unspecified)", "solubility kinetic": "> 52"}
{"smiles": "O=C(NCCNC(=O)c1ccccn1)c1ccccc1", "solubility kinetic": 36}
{"smiles": "S=c1ccc2ccccc2[nH]1", "solubility kinetic": 22.6}
{"smiles": "NC(=O)NOCc1cccc(Cl)c1", "solubility kinetic": "> 30.1"}
{"smiles": "COc1ccc(C(=O)CSc2nccn2C)cc1", "solubility kinetic": 35.1}
{"smiles": "COc1ccc(NC(=O)/C=C/c2cccc(Br)c2)cn1", "solubility kinetic": 3.8}
{"smiles": "Cc1oc(C(N)=O)cc1COc1ccc(C(N)=O)cc1", "solubility kinetic": 32.9}
{"smiles": "CC(C)CC(=O)NC(=S)Nc1ccccc1N1CCCC1", "solubility kinetic": 4}
{"smiles": "C=CCOc1cccc(C(=O)NC(c2ccccc2)C(C)C)c1", "note": "(stereo unspecified)", "solubility kinetic": 1.2}
{"smiles": "COc1ccc(C(CC(=O)Nc2nccs2)C(C)C)cc1", "note": "(stereo unspecified)", "solubility kinetic": 33.7}
{"smiles": "CCOC(=O)c1[nH]c2ccccc2c1NC(=O)NC(C)C", "solubility kinetic": 1.7}
{"smiles": "Cc1ccc(Nc2nc(N)c([N+](=O)[O-])c(NCc3ccccc3)n2)cc1", "solubility kinetic": 0.3}
{"smiles": "CC1CC(C)CN(C(=O)/C=C/c2ccc([N+](=O)[O-])s2)C1", "note": "(stereo unspecified)", "solubility kinetic": 5.8}
{"smiles": "CC(=O)c1cccc(OCC(O)CNCCOc2ccc(C)cc2)c1", "note": "(stereo unspecified)", "solubility kinetic": 47.6}
{"smiles": "O=C(Nc1ccccc1)C1CC2CCC1C2", "note": "(stereo unspecified)", "solubility kinetic": 31.8}
{"smiles": "Cc1ccc(CNC(=O)c2ccc(S(=O)(=O)N(C)C)cc2)n1C", "solubility kinetic": 48.6}
{"smiles": "CSc1ccc(CN2CCC(Cc3ccccc3)CC2)cc1", "solubility kinetic": 17.7}
{"smiles": "Cc1cccc2c1NC1(CCCC1)CC2C.Cl", "note": "(stereo unspecified)", "solubility kinetic": "< 0.5"}
{"smiles": "CCOc1cccc(NC(=O)/C(C#N)=C\\c2cccnc2)c1", "solubility kinetic": 30.4}
{"smiles": "CC(C)C/C(=N/O)c1cn(C)c2ccccc12", "solubility kinetic": 21.5}
{"smiles": "C=CCNC(=O)COc1c(C)ccc(C)c1C", "solubility kinetic": "> 35"}
{"smiles": "Oc1ccc(Cl)cc1C=Nc1ccc2c3c(cccc13)CC2", "solubility kinetic": "> 46.2"}
{"smiles": "S=C(Nc1cccnc1)NC1CC2CCC1C2", "note": "(stereo unspecified)", "solubility kinetic": "> 37.1"}
{"smiles": "FC(F)(F)c1ccc(Cl)c(NC2=NCCCCC2)c1", "solubility kinetic": "> 43.6"}
{"smiles": "Cc1ccc2nc(SCC(=O)NC3CCS(=O)(=O)C3)[nH]c2c1", "note": "(stereo unspecified)", "solubility kinetic": 48.3}
{"smiles": "Cc1ccnc(NC(=O)CCc2c[nH]c3ccccc23)c1", "solubility kinetic": "> 41.9"}
{"smiles": "COc1ccccc1OCC(=O)Nc1ccc2c(c1)OCO2", "solubility kinetic": 40.9}
{"smiles": "O=C(Nc1csc([N+](=O)[O-])c1)Nc1ccccc1Cl", "solubility kinetic": 1}
{"smiles": "O=C(NCCN1CCCCC1)Nc1ccc(Cl)cc1", "solubility kinetic": "> 42.3"}
{"smiles": "CCOc1nc(Nc2ccccc2F)nc(OCC)n1", "solubility kinetic": 10.4}
{"smiles": "Cc1ccc2nc(/N=C(\\N)NC(=O)NC3CCCCC3)nc(C)c2c1", "solubility kinetic": 8}
{"smiles": "CCOc1ccc(N(C)Cc2cc(=O)oc3ccc(OCC)cc23)cc1", "solubility kinetic": 2.3}
{"smiles": "COc1cc(CCC(=O)Nc2ncc(C)s2)cc(OC)c1OC", "solubility kinetic": 18.8}
{"smiles": "CCOc1ccc(NC(=O)c2ccc(NC(=O)c3ccc(NC(N)=O)cc3)cc2)cc1", "solubility kinetic": 2}
{"smiles": "COc1ccccc1C1C([N+](=O)[O-])=C(N)Oc2c1c(=O)oc1ccccc21", "note": "(stereo unspecified)", "solubility kinetic": 2.2}
{"smiles": "CCOC(=O)c1c2c3c(cccc3[nH]c1=O)C(=O)c1ccccc1-2", "solubility kinetic": "< 0.7"}
{"smiles": "COc1ccccc1NC(=O)COC(=O)C1CC(=O)N(c2ccc3c(c2)OCCO3)C1", "note": "(stereo unspecified)", "solubility kinetic": 37.8}
{"smiles": "CCOc1ccc(OCCn2c(=S)[nH]c3ccccc32)cc1", "solubility kinetic": 0.9}
{"smiles": "O=C(Nc1nccs1)c1ccccc1Br", "solubility kinetic": 6.2}
{"smiles": "O=C(COC(=O)C1CCN(S(=O)(=O)c2cccs2)CC1)Nc1ccc(F)cc1Cl", "solubility kinetic": 17.7}
{"smiles": "COc1cc(NC(=O)NC2Cc3ccccc3C2)cc(OC)c1", "solubility kinetic": "< 0.3"}
{"smiles": "Cc1ccc(S(=O)(=O)N2CCOCC2)cc1NC(=O)COC(=O)c1ccc(Br)cc1", "solubility kinetic": 5.3}
{"smiles": "CN(CC(=O)Nc1ccc(F)c(F)c1F)C(=O)c1ccc(N2CCCC2=O)cc1", "solubility kinetic": 53.4}
{"smiles": "COc1cccc(C(=O)Nc2ccccc2-c2ccccc2)c1", "solubility kinetic": 24}
{"smiles": "Cc1ncoc1C(=O)N1CCCC(C(=O)c2cccc3ccccc23)C1", "note": "(stereo unspecified)", "solubility kinetic": 50.3}
{"smiles": "O=C(O)c1ccc(S(=O)(=O)NC2CCCCCC2)cc1", "solubility kinetic": "> 44.6"}
{"smiles": "CC1(C)CC(NCc2ccncc2)CC(C)(C)N1", "solubility kinetic": 32.2}
{"smiles": "NC(=O)c1ccc(NC(=O)COc2cccc3ccccc23)cc1", "solubility kinetic": 1.1}
{"smiles": "Cc1ccc(S(=O)(=O)N(C)CC(=O)OCC(=O)c2ccc3c(c2)NC(=O)CO3)cc1", "solubility kinetic": 25}
{"smiles": "CC(=O)Nc1ccc(NC(=O)COC(=O)COc2ccc3ccccc3c2)cc1", "solubility kinetic": 9.7}
{"smiles": "O=C(N/N=C/c1cccnc1)c1cccs1", "solubility kinetic": "> 34.7"}
{"smiles": "COCCCNC(=O)c1ccccc1-c1cc(C)no1", "solubility kinetic": 32.6}
{"smiles": "O=C1c2cccc3cccc(c23)C(=O)N1Cc1ccccc1", "solubility kinetic": "< 0.6"}
{"smiles": "CC(=O)c1c(-c2ccccc2)c2ccccc2[nH]c1=O", "solubility kinetic": 15.1}
{"smiles": "CN(CCc1ccccc1)c1ccc([N+](=O)[O-])cn1", "solubility kinetic": 9.6}
{"smiles": "CCOC(=O)c1cc2c(ccn2C)n1Cc1ccc(Cl)cc1", "solubility kinetic": 1.3}
{"smiles": "COC(=O)CSC(=S)N1C(C)CCCC1C", "note": "(stereo unspecified)", "solubility kinetic": 31.1}
{"smiles": "O=C(Nc1ccc(-c2cn3c(n2)SCC3)cc1)c1ccco1", "solubility kinetic": 24.1}
{"smiles": "Cc1cc2c(SCC(=O)NC3CCCCC3)ncnc2s1", "solubility kinetic": 4.4}
{"smiles": "CC(C)(C)S(=O)(=O)c1cnc(-c2ccc(Cl)cc2)nc1N", "solubility kinetic": "< 0.2"}
{"smiles": "OCCN(CC#CC(O)(c1ccccc1)c1ccccc1)CCO", "solubility kinetic": "> 48.8"}
{"smiles": "Cc1cc(N2CCCC2)nc2c(C)cccc12", "solubility kinetic": 7.2}
{"smiles": "O=S(=O)(c1cc(F)ccc1F)N1CCN(c2ccccn2)CC1", "solubility kinetic": 18.9}
{"smiles": "CC(=O)c1cccc(NC(=O)c2ccccc2-c2ccccc2C(=O)O)c1", "solubility kinetic": "> 53.9"}
{"smiles": "CCOC(=O)C1CCCN(C(=O)c2cc3cc(F)ccc3[nH]2)C1", "note": "(stereo unspecified)", "solubility kinetic": 23.9}
{"smiles": "Cc1ccccc1NS(=O)(=O)c1cccc2nsnc12", "solubility kinetic": "> 45.8"}
{"smiles": "CC(NC(=O)COc1cccnc1[N+](=O)[O-])c1ccc(Cl)cc1", "note": "(stereo unspecified)", "solubility kinetic": "> 50.4"}
{"smiles": "O=C(Nc1ccc2c(c1)COC2=O)c1ccc(Cl)c(Cl)c1", "solubility kinetic": 3.5}
{"smiles": "Cc1ccnc(N2CCCC(C(=O)NC3CC3)C2)n1", "note": "(stereo unspecified)", "solubility kinetic": 37.3}
{"smiles": "Cn1c(O)c(C(=Nc2ccc(F)cc2)c2ccccc2Cl)c(=O)n(C)c1=O", "solubility kinetic": 1.8}
{"smiles": "O=C(Cc1ccccc1F)Nc1ccc2c(c1)CCC2", "solubility kinetic": 4.7}
{"smiles": "COc1ccc(NC(=O)COC(=O)CCSc2ccccc2)cc1", "solubility kinetic": 10.6}
{"smiles": "CCOc1ccc(S(=O)(=O)N(CC)CC(=O)N2CCCC2)cc1", "solubility kinetic": "> 51.1"}
{"smiles": "Cc1nc(C(F)(F)F)ccc1C(=O)NCC(O)c1ccccc1", "note": "(stereo unspecified)", "solubility kinetic": "> 48.6"}
{"smiles": "COc1ccccc1NC(=O)c1ccc2nc(C)c(C)nc2c1", "solubility kinetic": 16.3}
{"smiles": "COc1cccc(NC(=O)COC(=O)c2sccc2C)c1", "solubility kinetic": 12.2}
{"smiles": "Cc1nc2cc(NC(=O)N3CCCC3)ccc2n1C", "solubility kinetic": 29.4}
{"smiles": "O=C(CN1c2cccc3cccc(c23)S1(=O)=O)NCc1ccc(F)cc1", "solubility kinetic": 27.4}
{"smiles": "Cc1ccc(NC(=O)CC(C)CC(=O)NCc2ccccc2)cc1Cl", "note": "(stereo unspecified)", "solubility kinetic": "< 0.4"}
{"smiles": "O=C(O)C1CCCN1C(=O)NC1CCCCC1", "note": "(stereo unspecified)", "solubility kinetic": 30.4}
{"smiles": "CS(=O)(=O)CC(=O)Nc1ccc2nc3n(c(=O)c2c1)CCCCC3", "solubility kinetic": 43.2}
{"smiles": "OCC1(Cc2ccccc2)CCCN(Cc2c[nH]c3ccccc23)C1", "note": "(stereo unspecified)", "solubility kinetic": 36}
{"smiles": "CCCCC(=O)N1CC(=O)Nc2ccc(F)cc2C1c1ccccc1", "note": "(stereo unspecified)", "solubility kinetic": "> 51.1"}
{"smiles": "O=S(=O)(Nc1ccccn1)c1cc(Cl)ccc1Cl", "solubility kinetic": 9.2}
{"smiles": "Cl.N=c1ccn(Cc2cccc(F)c2)cc1", "solubility kinetic": 30.8}
{"smiles": "O=C(c1cn(Cc2ccccc2)c2ccccc12)C1CC1", "solubility kinetic": "< 0.6"}
{"smiles": "Cc1ccc(NC(=O)c2ccco2)c(NC(=O)COc2ccccc2)c1", "solubility kinetic": 5.3}
{"smiles": "Cc1ccc(NS(=O)(=O)c2ccc(F)cc2)nc1", "solubility kinetic": 34.4}
{"smiles": "Cc1cc(S(=O)(=O)Nc2cccc(Cl)c2)c(C)s1", "solubility kinetic": 37.4}
{"smiles": "Cc1nc2cc3c(cc2s1)OCO3", "solubility kinetic": 13.1}
{"smiles": "O=C(Nc1ccc(Cl)cc1Cl)c1ccc2ncsc2c1", "solubility kinetic": 0.4}
{"smiles": "O=C(CN1C(=O)NC2NC(=O)NC21)N/N=C/c1ccc(F)cc1", "note": "(stereo unspecified)", "solubility kinetic": "> 48"}
